From US8138220B2, “[2-(6-fluoro-1H-indol-3-ylsulfanyl)benzyl]methyl amine for the treatment of affective disorders” (H. Lundbeck A/S, priority 2006, dated 2012)

Key:
5-HT2A receptors [1] = molecular target: T1, 5-HT2A receptors (Homo sapiens, UniProt P28223); assay: 5-HT2A receptor affinity (MDL Pharmaservices catalogue number 271650); type: binding; parameters: purchased MDL Pharmaservices 271650; conditions: Cheng Prusoff from IC50, 5 concentrations
Method: 5 concentration of compound (1, 10, 30, 100, 1000 nM) were used to calculate the IC50 value. Ki was calculated from the Cheng Prusoff equation Ki=(IC50/(1+([L]/Kd)) Affinity was determined at MDL Pharmaservices catalogue number 271650.

serotonin reuptake = molecular target: T2, serotonin reuptake (Rattus norvegicus, UniProt P31652); assay: Serotonin transport inhibition, [3H]5-HT uptake in rat cortical synaptosomes; type: biochemical; conditions: [3H]5-HT 10 nM
T2 construct: rat cortical synaptosome preparation; from tissue; host or cells: rat cortical synaptosomes
Method: (§1) Aliquots of test compound and rat cortical synaptosome preparation were pre-incubated for 10 min/37° C., and then added [^3H]NE or [^3H]5-HT (final concentration 10 nM). Non-specific uptake was determined in the presence of 10 μM talsupram or citalopram and the total uptake was determined in the presence of buffer. Aliquots were incubated for 15 minutes at 37° C. After the incubation [^3H]NE or [^3H]5-HT taken up by synaptosomes was separated by filtration through Unifilter GF/C, presoaked in 0.1% PEI for 30 minutes, using a Tomtec CellHarvester program. Filters were washed and counted in a Wallac MicroBeta counter.

5-HT2A receptors [2] = molecular target: T1, 5-HT2A receptors; assay: 5-HT2A functional assay, 5-HT evoked Ca2+ release in CHO cells (FLIPR)
Method: The experiment was carried out as follows. 2 or 3 days before the experiment CHO cells expressing approximately 250 fmol/mg 5-HT2A receptors are plated at a density sufficient to yield a mono-confluent layer on the day of the experiment. […] Lacer intensity was set to a suitable level to obtain basal values of approximately 8000-10000 fluorescence units. The variation in basal fluorescence should be less than 10%. […] Test substances are added to the cells 5 minutes before the 5-HT.

[3] = molecular target: T3, human alpha1A-7 receptors (Homo sapiens, UniProt P35348); assay: α1A functional assay, adrenaline evoked Ca2+ release in CHO cells (FLIPR); type: cell-based; conditions: CHO cells expressing human alpha1A-7 receptors
T3 sequence (P35348 1-423 limits assumed): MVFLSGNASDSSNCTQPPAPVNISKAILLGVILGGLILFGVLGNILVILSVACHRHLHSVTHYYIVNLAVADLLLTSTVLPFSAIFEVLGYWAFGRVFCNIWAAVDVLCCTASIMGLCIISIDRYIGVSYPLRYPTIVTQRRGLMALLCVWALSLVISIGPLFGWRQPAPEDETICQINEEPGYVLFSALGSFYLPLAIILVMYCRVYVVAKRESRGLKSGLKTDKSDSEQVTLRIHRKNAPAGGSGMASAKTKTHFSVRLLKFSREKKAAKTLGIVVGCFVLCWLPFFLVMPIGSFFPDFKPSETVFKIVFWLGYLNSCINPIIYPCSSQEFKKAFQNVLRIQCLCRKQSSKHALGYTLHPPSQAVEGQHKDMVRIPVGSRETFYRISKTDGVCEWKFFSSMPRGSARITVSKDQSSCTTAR
Method: All cells were cultured in DMEM medium supplemented with 10% BCS, 4 mM L-glutamine (or 2 mM in the case of COS-7), and 100 units/ml penicillin plus 100 μg/ml streptomycin, at 37° C., in 5% CO2.
Twenty-four hours prior to assays, CHO cells expressing the human alpha1A-7 receptors were seeded into 384-well black wall microtiter plates coated with poly-D-lysine. Culture medium was aspirated and cells were dye-loaded with 1.5 μM Fluo-4 in assay buffer composed of Hank's Balanced Salt Solution (138 mM NaCl, 5 mM KCl, 1.3 mM CaCl2, 0.5 mM MgCl2, 0.4 mM MgSO4, 0.3 mM KH2PO4, 0.3 mM Na2HPO4, 5.6 mM glucose) plus 20 mM HEPES pH 7.4, 0.05% BSA and 2.5 mM probenicid (50 μl/well) for 1 hour in 5% CO2 at 37° C. After excess dye was discarded, cells were washed in assay buffer and layered with a final volume equal to 45 μl/well (or 30 ul/well for antagonist assay). […] Laser excitation energy was adjusted so that basal fluorescence readings were approximately 8,000 relative fluorescent units (RFU). Cells were then stimulated at room temperature with agonists diluted in assay buffer (15 μl), and RFU were measured at 1.5 second intervals over a period of 2.5 min. Maximum change in fluorescence was calculated for each well. Concentration-response curves derived from the maximum change in fluorescence were analyzed by nonlinear regression (Hill equation). […]

Rats = assay: Impact on sleep architecture, EEG/EMG in rats; type: in vivo, rat; conditions: for % of time spent in REM / % of time spent in SWS / % of time spent in Wake: second hour of recording; for sleep latency: time from injection until first consolidated sleeping episode
Method: Rats were implanted with EEG and EMG electrodes to monitor the brain electrical activity and the muscle electrical activity, respectively. The electrodes were connected to a radio transmitter allowing a continuous collection of activity data from freely moving, undisturbed and home-caged animals. The EEG and EMG data were visually scored to determine the arousal states wake, SWS and REM sleep. A group of 10 rats were administered vehicle or the compound of the present invention corresponding to 0.4 mg/kg and 4 mg/kg of the free base. A William's square cross over design was applied so that each animal receives each treatment once.

[4] = test system: telemeterised Beagle dogs; assay: Effect on blood pressure in telemeterised Beagle dogs; type: in vivo, dog
Method: The cardiovascular effects of compounds of the present invention were investigated in telemeterised Beagle dogs in the doses 0.25, 0.50 and 1.0 mg/kg given by gavage. Amount of compound is calculated as the free base. Six dogs were used in the experiment, three males and three females.

noradrenalin reuptake = molecular target: T4, noradrenalin reuptake (Rattus norvegicus, UniProt Q63380); assay: Noradrenalin transport inhibition, [3H]NE uptake in rat cortical synaptosomes; type: biochemical; conditions: [3H]NE 10 nM
T4 construct: rat cortical synaptosome preparation; from tissue; host or cells: rat cortical synaptosomes
Method: as §1

rat 5-HT2A receptor = rat 5-HT2A receptor (Rattus norvegicus, UniProt P14842); assay: Ki for rat versus human 5-HT2A receptor; type: binding
Sequence of rat 5-HT2A receptor (P14842 whole entry): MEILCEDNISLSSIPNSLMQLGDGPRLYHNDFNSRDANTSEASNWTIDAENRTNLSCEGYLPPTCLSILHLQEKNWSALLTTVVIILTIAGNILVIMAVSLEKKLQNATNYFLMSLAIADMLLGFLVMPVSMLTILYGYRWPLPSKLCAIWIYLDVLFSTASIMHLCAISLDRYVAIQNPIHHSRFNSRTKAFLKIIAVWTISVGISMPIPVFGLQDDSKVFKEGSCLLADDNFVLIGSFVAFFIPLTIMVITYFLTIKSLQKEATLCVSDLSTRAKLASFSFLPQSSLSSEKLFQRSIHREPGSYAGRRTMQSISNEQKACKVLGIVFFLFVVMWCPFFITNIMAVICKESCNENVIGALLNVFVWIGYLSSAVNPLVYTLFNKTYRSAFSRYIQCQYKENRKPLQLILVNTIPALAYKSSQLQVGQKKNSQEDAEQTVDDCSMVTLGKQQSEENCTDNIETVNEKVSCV

T1 sequence (P28223 whole entry): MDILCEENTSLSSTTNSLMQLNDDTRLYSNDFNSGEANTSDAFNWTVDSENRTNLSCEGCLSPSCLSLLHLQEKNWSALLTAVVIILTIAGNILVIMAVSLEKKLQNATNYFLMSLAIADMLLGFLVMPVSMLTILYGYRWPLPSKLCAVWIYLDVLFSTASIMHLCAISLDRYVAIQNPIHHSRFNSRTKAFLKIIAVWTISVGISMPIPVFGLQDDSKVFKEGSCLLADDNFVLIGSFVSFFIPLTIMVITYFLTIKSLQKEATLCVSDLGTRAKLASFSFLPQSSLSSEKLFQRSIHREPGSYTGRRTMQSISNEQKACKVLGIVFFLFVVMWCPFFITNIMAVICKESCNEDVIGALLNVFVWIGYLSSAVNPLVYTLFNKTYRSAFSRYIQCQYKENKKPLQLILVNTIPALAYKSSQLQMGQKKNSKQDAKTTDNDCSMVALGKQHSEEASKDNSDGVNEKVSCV
T2 sequence (P31652 whole entry): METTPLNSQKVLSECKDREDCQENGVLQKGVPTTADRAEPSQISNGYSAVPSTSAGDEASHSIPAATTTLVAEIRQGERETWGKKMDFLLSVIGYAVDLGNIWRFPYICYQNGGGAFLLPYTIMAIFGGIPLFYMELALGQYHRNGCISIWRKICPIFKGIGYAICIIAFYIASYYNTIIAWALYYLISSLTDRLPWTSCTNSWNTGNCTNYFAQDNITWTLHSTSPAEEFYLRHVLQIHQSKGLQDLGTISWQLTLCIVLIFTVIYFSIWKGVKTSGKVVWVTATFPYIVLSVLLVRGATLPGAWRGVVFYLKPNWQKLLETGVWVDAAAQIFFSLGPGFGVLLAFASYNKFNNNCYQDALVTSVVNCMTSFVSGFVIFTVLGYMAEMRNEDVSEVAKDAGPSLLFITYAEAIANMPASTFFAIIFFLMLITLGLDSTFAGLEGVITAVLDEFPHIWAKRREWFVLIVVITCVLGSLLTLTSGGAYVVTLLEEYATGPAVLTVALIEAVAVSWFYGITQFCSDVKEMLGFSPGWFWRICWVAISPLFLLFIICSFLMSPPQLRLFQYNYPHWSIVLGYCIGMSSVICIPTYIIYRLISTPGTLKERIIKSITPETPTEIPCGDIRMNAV
T4 sequence (Q63380 1-617): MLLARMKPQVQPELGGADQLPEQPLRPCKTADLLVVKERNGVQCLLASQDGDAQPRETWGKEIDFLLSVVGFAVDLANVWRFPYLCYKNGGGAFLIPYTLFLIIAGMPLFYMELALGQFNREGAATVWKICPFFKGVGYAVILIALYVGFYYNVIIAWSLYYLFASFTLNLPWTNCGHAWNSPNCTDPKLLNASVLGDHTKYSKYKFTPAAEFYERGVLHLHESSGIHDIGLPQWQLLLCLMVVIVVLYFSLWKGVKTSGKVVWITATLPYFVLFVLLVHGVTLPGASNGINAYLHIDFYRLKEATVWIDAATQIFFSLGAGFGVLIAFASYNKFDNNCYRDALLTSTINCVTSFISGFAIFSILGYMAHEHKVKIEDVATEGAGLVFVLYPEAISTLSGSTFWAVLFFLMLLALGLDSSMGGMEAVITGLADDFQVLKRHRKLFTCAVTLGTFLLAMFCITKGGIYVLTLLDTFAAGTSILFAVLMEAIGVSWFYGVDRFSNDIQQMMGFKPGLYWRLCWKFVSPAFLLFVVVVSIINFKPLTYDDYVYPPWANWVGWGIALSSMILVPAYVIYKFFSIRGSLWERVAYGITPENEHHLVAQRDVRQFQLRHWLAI

Question: Which Ki (5-HT2A receptors [1]) does the source give for CNCc1ccccc1Sc1c[nH]c2cc(F)ccc12 [compounds of the present invention, [2-(6-fluoro-1H-indol-3-ylsulfanyl)benzyl]methyl amine] here?
Answer: 14 nM

Question: And the IC50 (serotonin reuptake)?
Answer: 0.4 nM

Question: And the Kb (5-HT2A receptors [2])?
Answer: 130 nM

Question: What about the pA2 (5-HT2A receptors [2]; schild analysis, CHO cells expressing 5-HT2A, 5-HT curves with 150, 400, 1500, 4000 nM compound) of the same molecule?
Answer: 6.88

Question: And the Kb [3]?
Answer: 64 nM

Question: And the “% of time spent in REM” value (Rats; 0.4 mg/kg free base)?
Answer: 0.00%

Question: And the “% of time spent in SWS” value (Rats; 0.4 mg/kg free base)?
Answer: 62.08%

Question: And the “% of time spent in Wake” value (Rats; 0.4 mg/kg free base)?
Answer: 37.92%

Question: What about the sleep latency (Rats; 0.4 mg/kg) of the same molecule?
Answer: 26.43 min

Question: What about the “% of time spent in REM” value (Rats; 4.0 mg/kg free base) of the same molecule?
Answer: 0.00%

Question: And the “% of time spent in SWS” value (Rats; 4.0 mg/kg free base)?
Answer: 69.97%

Question: And the “% of time spent in Wake” value (Rats; 4.0 mg/kg free base)?
Answer: 30.03%

Question: And the sleep latency (Rats; 4.0 mg/kg)?
Answer: 20.62 min

Question: And the “Systolic arterial blood pressure (Change from baseline (mean ± SD)) (10-380 min)” value ([4]; 0.25 mg/kg by gavage)?
Answer: −4.26 ± 5.98

Question: And the “Systolic left ventricular pressure (Change from baseline (mean ± SD)) Post-dose period I (10-380 min)” value ([4]; 0.25 mg/kg by gavage)?
Answer: −3.82 ± 3.42^♀

Question: And the “Systolic arterial blood pressure (Change from baseline (mean ± SD)) (10-380 min)” value ([4]; 0.50 mg/kg by gavage)?
Answer: −9.77 ± 5.39

Question: And the “Systolic left ventricular pressure (Change from baseline (mean ± SD)) Post-dose period I (10-380 min)” value ([4]; 0.50 mg/kg by gavage)?
Answer: −11.13 ± 4.05^♂♀

Question: What about the “Systolic arterial blood pressure (Change from baseline (mean ± SD)) (10-380 min)” value ([4]; 1.00 mg/kg by gavage) of the same molecule?
Answer: −6.30 ± 6.63

Question: What about the “Systolic left ventricular pressure (Change from baseline (mean ± SD)) Post-dose period I (10-380 min)” value ([4]; 1.00 mg/kg by gavage) of the same molecule?
Answer: −3.08 ± 5.37^♂,♀

Question: What about the IC50 (noradrenalin reuptake) of the same molecule?
Answer: 4.4 nM

Question: And the “Ki rat 5-HT2A receptor higher than human 5-HT2A receptor” value (rat 5-HT2A receptor)?
Answer: ~40 fold
